Data taken from ChEMBL document CHEMBL1201862, “PubChem BioAssay data set” (2004).
The source made the active and inactive calls.

How the values were obtained:
Kallikrein-7 = Kallikrein-7 (Homo sapiens, UniProt P49862); assay: Fluorescence Intensity-based biochemical primary high throughput dose response assay to identify activators of kallikrein-7 (K7) zymogen.
[1] = viability loss in CEM21 cells – cell-based, plate reader, dry powder, cytotoxicity control, dose response (AID 687026); type: functional
[2] = inhibition of Env-driven cell fusion – HIV entry, plate reader, dry powder, dose response (AID 687023); type: functional, cell-based
[3] = MITF Measured in Cell-Based System Using Plate Reader - 2084-01_Inhibitor_Dose_DryPowder_Activity_Set6.; type: functional
[4] = cytotoxicity in MITF-independent A375 cells – cell-based, CellTiter-Glo luminescence, dry powder, set 4, counter-screen for MITF inhibitor project, dose response (AID 624364); type: functional; conditions: A-375;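 further: A375 melanoma cells are MITF independent so this is a counter screen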
[5] = cytotoxicity in melanoma parental cells – cell-based, CellTiter-Glo, dry powder, set 6, MITF inhibitor project, dose response (AID 624429); type: functional; conditions: SK-MEL-5
[6] = MITF Orthogonal Assay: SK-MEL-5 CTG Assay Measured in Cell-Based System Using Plate Reader - 2084-02_Inhibitor_Dose_DryPowder_Activity_Set5.; type: functional
[7] = MITF Orthogonal Assay: MALME3 CTG Assay Measured in Cell-Based System Using Plate Reader - 2084-04_Inhibitor_Dose_DryPowder_Activity_Set6.; type: functional; conditions: MALME-3
[8] = inhibitors of TRPM1-promoter reporter in SK-MEL-5 – cell-based, luciferase, dry powder, set 9, MITF inhibitor project, dose response (AID 651588); type: functional
[9] = growth inhibition of MALME3 cells – cell-based, CellTiter-Glo luminescence, dry powder, set 5, orthogonal assay for MITF inhibitor project, dose response (AID 651584); type: functional; conditions: MALME-3
[10] = growth inhibition of SK-MEL-5 melanoma cells – cell-based, CellTiter-Glo luminescence, dry powder, set 8, orthogonal assay for MITF inhibitor project, dose response (AID 651586); type: functional
[11] = MITF Measured in Cell-Based System Using Plate Reader - 2084-01_Inhibitor_Dose_DryPowder_Activity_Set7.; type: functional
[12] = target: G-protein coupled receptor 183 (Homo sapiens, UniProt P32249); assay: SAR confirmation of small molecule antagonists of the EBI2 receptor via a luminescent beta-arrestin assa.; type: functional
[13] = growth inhibition of yeast DHODH-expressing 3D7 parasites – SYBR Green, dry powder samples, dose response (AID 1159570); type: functional, cell-based;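 further: parasite growth measured after 72 hours of compound exposure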
[14] = Dd2 malaria parasite growth inhibition potency – SYBR Green, dry powder samples, dose response (AID 1159566); type: functional, cell-based;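 further: potency for growth inhibition with lower SYBR green DNA signal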
[15] = growth inhibition of PfATP4-mutant resistant parasites – NITD609-resistant line, SYBR Green, dry powder, dose response (AID 1159571); type: functional, cell-based;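 further: parasites synchronized at ring stage by sorbitol before testing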
[16] = P. falciparum Dd2 growth inhibitors, dose response, SYBR Green, cherry-picked samples (AID 1159567); type: functional, cell-based
[17] = toxicity to human HepG2 hepatoma cells – cell-based, plate reader, dry powder samples, cytotoxicity control, dose response (AID 1159569); type: functional;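 further: inhibitor potency with signal falling toward the positive control level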
[18] = target: RNA-editing ligase 1, mitochondrial (Trypanosoma brucei brucei, UniProt P86926); assay: inhibition of trypanosome RNA editing ligase – biochemical, fluorescence, Trypanosoma brucei, dose response (AID 1117295); type: functional
Phospholipase D1 = Phospholipase D1 (Homo sapiens, UniProt Q13393); assay: PLD1 Cellular Concentration Response Study.; type: functional
Phospholipase D2 = Phospholipase D2 (Homo sapiens, UniProt O14939); assay: PLD2 Cellular Concentration Response Study.; type: functional
[19] = target: Calcium-dependent protein kinase 1 (Plasmodium falciparum, UniProt P62344); assay: PfCDPK1 kinase inhibitors, biochemical, TCAMS library (AID 1159585); type: functional
Cytochrome P450 1A2 = target: T1, Cytochrome P450 1A2 (Homo sapiens, UniProt P05177);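 further: PubChem cytochrome P450 panel assay, CYP1A2 panel member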
T1 sequence (P05177 whole entry): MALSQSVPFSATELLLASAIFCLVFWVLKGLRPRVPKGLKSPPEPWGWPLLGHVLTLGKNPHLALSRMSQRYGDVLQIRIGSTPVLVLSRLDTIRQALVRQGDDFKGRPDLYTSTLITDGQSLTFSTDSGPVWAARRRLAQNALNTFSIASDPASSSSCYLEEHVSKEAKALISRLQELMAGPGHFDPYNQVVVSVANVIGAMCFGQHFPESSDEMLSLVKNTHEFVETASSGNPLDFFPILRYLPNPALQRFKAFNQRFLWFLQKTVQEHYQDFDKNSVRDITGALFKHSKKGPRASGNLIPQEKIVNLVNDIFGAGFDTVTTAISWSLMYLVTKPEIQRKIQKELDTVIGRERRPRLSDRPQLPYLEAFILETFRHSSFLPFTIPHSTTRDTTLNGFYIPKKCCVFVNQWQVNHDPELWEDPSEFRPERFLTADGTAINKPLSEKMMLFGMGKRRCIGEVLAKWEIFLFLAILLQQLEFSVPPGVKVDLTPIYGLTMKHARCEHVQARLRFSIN

cells = type: functional, cell-based; conditions: INS-1E
[20] = IC50 of insulin release inhibition, rat insulinoma INS-1E line, 5 mM glucose, cell-based (AID 1117331); type: functional

G-protein coupled receptor 183, sequence (P32249 whole entry): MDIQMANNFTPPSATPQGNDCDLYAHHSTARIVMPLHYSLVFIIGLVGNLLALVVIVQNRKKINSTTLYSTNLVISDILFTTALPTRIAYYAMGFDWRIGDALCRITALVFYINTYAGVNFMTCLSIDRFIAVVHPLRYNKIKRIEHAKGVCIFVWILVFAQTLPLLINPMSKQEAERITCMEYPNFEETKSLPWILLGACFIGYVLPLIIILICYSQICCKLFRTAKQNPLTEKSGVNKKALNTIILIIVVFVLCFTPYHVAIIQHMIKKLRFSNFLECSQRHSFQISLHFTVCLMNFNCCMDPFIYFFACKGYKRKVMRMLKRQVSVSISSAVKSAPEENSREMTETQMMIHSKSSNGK
Calcium-dependent protein kinase 1, sequence (P62344 whole entry): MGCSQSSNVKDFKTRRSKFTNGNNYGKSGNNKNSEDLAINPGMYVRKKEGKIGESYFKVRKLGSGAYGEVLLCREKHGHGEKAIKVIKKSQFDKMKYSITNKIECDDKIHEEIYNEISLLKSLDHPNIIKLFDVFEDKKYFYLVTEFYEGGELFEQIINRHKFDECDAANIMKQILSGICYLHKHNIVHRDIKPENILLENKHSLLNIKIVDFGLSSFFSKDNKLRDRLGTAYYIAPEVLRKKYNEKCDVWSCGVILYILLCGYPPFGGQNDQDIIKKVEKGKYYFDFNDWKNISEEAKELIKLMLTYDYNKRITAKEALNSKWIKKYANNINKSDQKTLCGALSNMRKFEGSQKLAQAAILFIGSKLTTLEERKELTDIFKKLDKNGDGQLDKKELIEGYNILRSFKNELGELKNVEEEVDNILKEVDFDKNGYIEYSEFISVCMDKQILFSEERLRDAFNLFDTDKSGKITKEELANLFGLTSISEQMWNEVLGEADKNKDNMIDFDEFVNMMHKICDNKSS
RNA-editing ligase 1, mitochondrial, sequence (P86926 whole entry): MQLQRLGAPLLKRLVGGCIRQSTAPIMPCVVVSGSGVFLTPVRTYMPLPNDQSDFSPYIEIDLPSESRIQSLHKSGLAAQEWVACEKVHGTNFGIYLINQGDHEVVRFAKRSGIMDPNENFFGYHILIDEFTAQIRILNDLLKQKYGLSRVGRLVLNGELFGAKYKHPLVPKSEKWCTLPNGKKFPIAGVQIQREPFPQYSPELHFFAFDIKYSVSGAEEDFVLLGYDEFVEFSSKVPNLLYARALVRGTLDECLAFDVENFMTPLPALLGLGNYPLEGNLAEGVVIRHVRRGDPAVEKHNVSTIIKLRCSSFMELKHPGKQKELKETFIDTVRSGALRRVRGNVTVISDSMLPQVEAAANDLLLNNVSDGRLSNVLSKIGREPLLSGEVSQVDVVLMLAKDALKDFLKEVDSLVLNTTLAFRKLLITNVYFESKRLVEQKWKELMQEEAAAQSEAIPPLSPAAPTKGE
Phospholipase D2, sequence (O14939 whole entry): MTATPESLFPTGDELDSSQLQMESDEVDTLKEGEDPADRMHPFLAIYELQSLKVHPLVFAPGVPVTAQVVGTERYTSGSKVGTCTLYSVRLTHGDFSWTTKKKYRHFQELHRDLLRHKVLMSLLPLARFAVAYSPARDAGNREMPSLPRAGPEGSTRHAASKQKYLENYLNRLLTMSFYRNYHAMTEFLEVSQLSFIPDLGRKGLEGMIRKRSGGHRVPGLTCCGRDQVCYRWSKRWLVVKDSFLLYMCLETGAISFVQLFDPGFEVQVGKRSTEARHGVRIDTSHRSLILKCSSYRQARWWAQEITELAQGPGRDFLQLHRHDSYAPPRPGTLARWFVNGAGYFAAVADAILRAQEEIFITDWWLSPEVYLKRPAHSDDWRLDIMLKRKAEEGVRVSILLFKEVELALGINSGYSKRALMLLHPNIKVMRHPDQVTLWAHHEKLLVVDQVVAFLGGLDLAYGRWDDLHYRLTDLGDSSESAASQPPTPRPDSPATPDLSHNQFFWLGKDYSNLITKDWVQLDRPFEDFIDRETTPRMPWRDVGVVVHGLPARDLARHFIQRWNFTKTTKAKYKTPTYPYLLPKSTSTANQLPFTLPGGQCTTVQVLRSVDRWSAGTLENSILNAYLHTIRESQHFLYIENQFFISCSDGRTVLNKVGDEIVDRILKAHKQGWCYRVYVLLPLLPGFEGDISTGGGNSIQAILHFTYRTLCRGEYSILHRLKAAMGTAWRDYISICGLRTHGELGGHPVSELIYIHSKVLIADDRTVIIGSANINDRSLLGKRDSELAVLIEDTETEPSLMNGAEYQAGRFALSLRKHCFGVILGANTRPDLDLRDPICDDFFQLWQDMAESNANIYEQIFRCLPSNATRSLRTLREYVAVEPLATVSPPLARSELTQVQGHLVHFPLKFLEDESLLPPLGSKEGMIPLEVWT
Kallikrein-7, sequence (P49862 whole entry): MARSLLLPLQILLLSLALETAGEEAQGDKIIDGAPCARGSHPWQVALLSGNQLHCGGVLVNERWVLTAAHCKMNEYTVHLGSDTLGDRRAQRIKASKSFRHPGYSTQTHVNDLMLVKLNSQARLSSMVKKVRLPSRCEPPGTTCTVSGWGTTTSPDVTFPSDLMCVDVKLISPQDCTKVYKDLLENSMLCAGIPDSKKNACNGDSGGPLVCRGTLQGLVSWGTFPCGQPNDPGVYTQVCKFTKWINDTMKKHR
Phospholipase D1, sequence (Q13393 whole entry): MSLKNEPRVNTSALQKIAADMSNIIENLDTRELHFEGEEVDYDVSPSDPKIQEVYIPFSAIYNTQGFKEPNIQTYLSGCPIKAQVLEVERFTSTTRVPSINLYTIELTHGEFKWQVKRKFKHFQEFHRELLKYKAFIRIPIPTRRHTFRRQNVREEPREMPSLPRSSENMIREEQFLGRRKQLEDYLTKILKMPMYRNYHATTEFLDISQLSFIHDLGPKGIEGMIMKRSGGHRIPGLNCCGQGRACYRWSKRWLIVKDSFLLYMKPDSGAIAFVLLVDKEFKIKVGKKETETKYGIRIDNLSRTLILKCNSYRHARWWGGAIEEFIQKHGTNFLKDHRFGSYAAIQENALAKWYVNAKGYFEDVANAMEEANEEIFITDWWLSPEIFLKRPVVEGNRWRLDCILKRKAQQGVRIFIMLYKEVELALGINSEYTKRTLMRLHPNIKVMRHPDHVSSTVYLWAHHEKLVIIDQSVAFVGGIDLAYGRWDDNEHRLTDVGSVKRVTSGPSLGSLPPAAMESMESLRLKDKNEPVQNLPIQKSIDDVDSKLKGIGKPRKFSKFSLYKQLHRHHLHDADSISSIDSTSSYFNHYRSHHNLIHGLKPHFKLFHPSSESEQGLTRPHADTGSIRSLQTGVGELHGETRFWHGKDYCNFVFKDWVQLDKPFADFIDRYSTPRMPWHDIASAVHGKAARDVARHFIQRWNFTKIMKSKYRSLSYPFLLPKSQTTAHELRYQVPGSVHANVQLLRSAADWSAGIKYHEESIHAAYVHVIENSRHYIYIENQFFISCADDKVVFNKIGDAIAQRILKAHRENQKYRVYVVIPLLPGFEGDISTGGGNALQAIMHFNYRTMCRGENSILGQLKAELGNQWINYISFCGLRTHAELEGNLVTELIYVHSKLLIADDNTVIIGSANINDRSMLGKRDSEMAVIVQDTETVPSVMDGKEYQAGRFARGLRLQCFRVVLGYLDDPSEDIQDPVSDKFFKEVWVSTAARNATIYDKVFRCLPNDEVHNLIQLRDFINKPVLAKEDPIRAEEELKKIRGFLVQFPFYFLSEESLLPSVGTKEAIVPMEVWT

In the case of `O=C1NC(C2CC3C=CC2C3)Nc2ccccc21` (stereo not given), the EC50 (Kallikrein-7) is reported as > 69.4 µM (inactive).
In the case of `CCOc1ccc(S(=O)(=O)NCc2ccncc2)cc1OCC`, the AC50 [1] is reported as > 70 µM (inactive) and the AC50 [2] is reported as 0.562 µM (active).
In the case of `NC1=C(NS(=O)(=O)c2ccc(Br)cc2)C(=O)c2ccccc2C1=O`, the AC50 [3] is reported as 41.5 µM (active), the AC50 [4] is reported as > 70 µM (inactive) and the AC50 [5] is reported as > 70 µM (inactive). For the same molecule, the AC50 [6] was > 70 µM (inactive), the AC50 [7] was > 70 µM (inactive) and the AC50 [8] was > 70 µM (inactive). The AC50 [9] was > 70 µM (inactive), the AC50 [10] was > 70 µM (inactive) and the AC50 [11] was 53.6 µM (active).
For `O=C(Cc1ccc(Br)cc1)N1CCN(C(=O)c2ccc(Cl)cc2)CC1`, the IC50 [12] was > 1 µM (inactive).
With `CC(C)CC#Cc1ccc([C@@H]2[C@H](CO)N3CCCCN(S(=O)(=O)Cc4ccccc4)C[C@@H]23)cc1` the AC50 [13] was 1.48 µM (active), the AC50 [14] was 0.805 µM (active) and the AC50 [15] was 0.957 µM (active). The AC50 [16] was 2.3 µM (active) and the AC50 [17] was 9.93 µM (active).
With `C=CCNC1=NC(c2ccc(F)cc2)C(C(=O)OC)=C(C)N1Cc1ccccc1C(F)(F)F` (stereo not given) the IC50 [18] was > 96.6 µM (inactive).
With `O=C(NCCN1CCC2(CC1)C(=O)NCN2Cc1cccc(Cl)c1)c1ccc2ccccc2c1` the IC50 (Phospholipase D1) was 2.8 µM (active) and the IC50 (Phospholipase D2) was 0.25 µM (active).
With `CC(C)(CN)c1nc(-c2ccc(Cl)c(O)c2)c(-c2ccnc(N)n2)[nH]1` the IC50 [19] was 0.007 µM (active).
For `CCN(CC)CCOCCOC(=O)C1(c2ccccc2)CCCC1` [CARBETAPENTANE], the AC50 (Cytochrome P450 1A2) was 20 µM (inconclusive), the IC50 (cells) was > 33.3 µM (inactive) and the IC50 [20] was 7.69 µM (inactive).
